From ChEMBL document CHEMBL4130584, “Sesqui- and Diterpenoids from the Radix of Curcuma aromatica” (2017)

How the values were obtained:
Assay type in all cases: functional
PC-12 [1] = assay: Antioxidant activity against H2O2-induced cell damage in rat PC12 cells assessed as cell viability at 10 uM after 24 hrs by MTT assay (reference value: 64.34 +/- 1.02 %); settings: PC-12, 24 h, read-out: Activity
PC-12 [2] = assay: Antioxidant activity against H2O2-induced cell damage in rat PC12 cells assessed as cell viability at 5 uM after 24 hrs by MTT assay (reference value: 64.34 +/- 1.02 %); settings: PC-12, 24 h, read-out: Activity
PC-12 [3] = assay: Antioxidant activity against H2O2-induced cell damage in rat PC12 cells assessed as cell viability at 1 uM after 24 hrs by MTT assay (reference value: 64.34 +/- 1.02 %); settings: for viability at 1 µM: PC-12, 24 h, read-out: Activity

Row | Compound | viability at 10 µM (PC-12 [1]) | viability at 5 µM (PC-12 [2]) | viability at 1 µM (PC-12 [3]) | Activity (PC-12 [3])
1 | CC1(C)CCC[C@]2(C)[C@@H]1CC[C@](O)(CO)[C@H]2C/C=C1\CCOC1=O | 74.1% | 72.2% | 67.6% | –
2 | CC1=CC(=O)[C@]23C[C@]24[C@@]1(O)CC[C@]4(C)OC3(C)C | 77.2% | 74.8% | 72.7% | –
3 | CCO[C@]12C/C(C)=C/CC[C@@H](C)C(=O)CC1=C(C)C(=O)O2 | 85.2% | 80.9% | 77.7% | –
4 | CC(C)C1=CC[C@@](C)(O)[C@@H]2CC[C@@](C)(O)[C@@H]2C1 | 77.7% | 77.9% | 69.5% | –
5 | CC1=C2CC(=O)[C@@H](C)CC/C=C(\C)C[C@@]2(O)OC1=O | 78.4% | 76.1% | 74.5% | –
6 | C=C1CC[C@H]2C(C)(C)[C@@H](O)CC[C@]2(C)[C@H]1C/C=C1\CCOC1=O | 67.4% | 67.1% | 66.9% | –
7 | VITAMIN E | – | – | – | 80.9%
8 | CC1=C2C[C@@H]3[C@](C)(CCC[C@@]3(C)O)C[C@]2(O)OC1=O | 90.1% | 80.9% | 81.2% | –
9 | CC1=C2CC(=O)[C@@H](C)CC/C=C(\C)C[C@H]2OC1=O | 80.2% | 77.4% | 65.4% | –
10 | CC1=C2C[C@]34O[C@](C)(C[C@H]2OC1=O)[C@H]3CC[C@@H]4C | 79.3% | 71.6% | 67.4% | –
11 | Cc1cc2oc(=O)c(C)c-2cc2c1CC[C@H]2C | 72.5% | 70.6% | 68.1% | –
12 | C=C(C)C(=O)C[C@@]12OC(=O)C=C(C)[C@@H]1CC[C@@H]2C | 75.9% | 72.4% | 69.3% | –
13 | CC(C)=C1C[C@H]2[C@@H](CC[C@]2(C)O)[C@](C)(O)CC1=O [ZEDOARONDIOL] | 72.6% | 70.3% | 81.9% | –
14 | CC1=C2C[C@@]34O[C@]2(OC1=O)[C@H](O)[C@](C)(O)[C@@H]3CC[C@H]4C | 79.8% | 77.7% | 73.7% | –
15 | CC1=CC(=O)C(=C(C)C)C[C@@]2(O)[C@H](C)CC[C@@H]12 | 76.2% | 68.8% | 69.5% | –
16 | C[C@]12CCC[C@](C)(C(=O)O)[C@@H]1CC[C@@]13CC[C@@H]([C@H](O)[C@H]21)[C@]1(C)O[C@H]31 | 72.3% | 70.8% | 68.2% | –
17 | CC(=O)CCc1c(C)cc(O)c2c1C(=O)OC2(C)C | 70.2% | 68.7% | 65.4% | –
18 | CC1=CC(=O)O[C@@]2(CC(=O)C(C)C)[C@@H](C)CC[C@@H]12 | 89% | 83.5% | 73.4% | –
19 | C=C[C@]1(C)C[C@@H]2OC(=O)C(C)=C2C[C@H]1C(=C)C [ISOGERMAFURENOLIDE] | 67.2% | 63.7% | 62.5% | –
20 | CC(C)=C1C[C@]2(O)[C@@H](CC[C@@H]2C)[C@@](C)(O)CC1=O | 65.2% | 64% | 66.3% | –
21 | CC1=C2C[C@H]3[C@H](CC[C@]3(C)O)[C@@](C)(O)C[C@]2(O)OC1=O [ZEDOAROLIDE B] | 80.7% | 77% | 76.1% | –
22 | Cc1cc(=O)c(C(C)C)cc2c1CC[C@]2(C)O | 75.2% | 76.7% | 77.7% | –
23 | CC1=C2C[C@H]3[C@H](CC[C@]3(C)O)[C@@](C)(O)C[C@@H]2OC1=O [ZEDOALACTONE C] | 81% | 77.3% | 73.1% | –
24 | CC1=C2CC[C@](C)(O)[C@H]2CC2=C(C)C(=O)O[C@@]2(O)C1 | 74.3% | 76.8% | 82.7% | –
25 | CC1=C2CC[C@](C)(O)[C@H]2CC2=C(C)C(=O)OC2=C1 | 88.7% | 84% | 82.9% | –
26 | CC1=CC(=O)C(=C(C)C)C[C@H]2[C@H]1CC[C@]2(C)O [PROCURCUMENOL] | 69.6% | 70% | 66.4% | –
27 | CC1=C2C[C@@H]3[C@H](CC[C@@]3(C)O)[C@](C)(O)C[C@H]2OC1=O | 76.4% | 72% | 67.5% | –
28 | C=C1CC[C@H]2C(C)(C)CCC[C@]2(C)[C@H]1CCC1=CC(=O)OC1 | 72.1% | 70.2% | 67.1% | –
